ChEMBL document CHEMBL1201862, “PubChem BioAssay data set” (2004)
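Dose response: 5 concentrations. Exposure: 48 h. Format: 96-well plates. Endpoint: linear interpolation; highest concentration if not reached. Here, GI50 denotes the concentration required for 50% inhibition of growth.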 Activity calls are given as the source filed them. No stated cut-off is given here; in the data, active = GI50 up to about 1.1 µM and inactive = higher.

How the values were obtained:
Test in all cases: NCI tumour cell line growth inhibition, 48 h
786-0 = test system: 786-0
COLO 205 = test system: COLO 205
EKVX = test system: EKVX
HCT-116 = test system: HCT-116
HCT-15 = test system: HCT-15
Hs-578T = test system: Hs-578T
MDA-MB-231 = test system: MDA-MB-231
MDA-MB-435 = test system: MDA-MB-435
NCI-H226 = test system: NCI-H226
NCI-H23 = test system: NCI-H23
NCI-H522 = test system: NCI-H522
OVCAR-8 = test system: OVCAR-8
RPMI-8226 = test system: RPMI-8226
SF-268 = test system: SF-268
SK-MEL-2 = test system: SK-MEL-2
SK-MEL-5 = test system: SK-MEL-5
SK-OV-3 = test system: SK-OV-3
SNB-19 = test system: SNB-19
SW-620 = test system: SW-620
UACC-62 = test system: UACC-62

Compound | GI50 (786-0) | GI50 (COLO 205) | GI50 (EKVX) | GI50 (HCT-116) | GI50 (HCT-15) | GI50 (Hs-578T) | GI50 (MDA-MB-231) | GI50 (MDA-MB-435) | GI50 (NCI-H226) | GI50 (NCI-H23) | GI50 (NCI-H522) | GI50 (OVCAR-8) | GI50 (RPMI-8226) | GI50 (SF-268) | GI50 (SK-MEL-2) | GI50 (SK-MEL-5) | GI50 (SK-OV-3) | GI50 (SNB-19) | GI50 (SW-620) | GI50 (UACC-62)
Cc1cc(=O)[nH]c2c1C(=O)c1c(C)cc(=O)n(C)c1C2=O | 54.5 nM (active) | 16.2 nM (active) | 205 nM (active) | 100 nM (active) | 123 nM | 26.2 nM (active) | 303 nM (active) | 14.2 nM (active) | 29.3 nM (active) | 14.2 nM (active) | 46 nM (active) | 83.2 nM (active) | 330 nM (active) | 129 nM (active) | 20.8 nM (active) | 15.1 nM (active) | 182 nM (active) | 18.5 nM (active) | 41.9 nM (active) | 17.1 nM (active)
C=C1C/C(=C/C)C(=O)O[C@@H]2CCN3CC=C(COC(=O)[C@]1(C)O)[C@H]23 [SENECIPHYLLINE] | > 100000 nM (inactive) | > 100000 nM (inactive) | > 100000 nM (inactive) | > 100000 nM (inactive) | > 100000 nM | > 100000 nM (inactive) | > 100000 nM (inactive) | > 100000 nM (inactive) | 35500 nM (inactive) | > 100000 nM (inactive) | > 100000 nM (inactive) | > 100000 nM (inactive) | > 100000 nM (inactive) | > 100000 nM (inactive) | > 100000 nM (inactive) | > 100000 nM (inactive) | > 100000 nM (inactive) | > 100000 nM (inactive) | > 100000 nM (inactive) | > 100000 nM (inactive)
